In patent US20090221664A1, “PHARMACEUTICAL COMPOSITIONS OF MUSCARINIC RECEPTOR ANTAGONISTS” (priority 2005, published 2009):

Tested on: carbachol precontracted guinea-pig isolated trachea
Experiment: In-vitro functional assay: relaxation of carbachol precontracted guinea-pig isolated trachea by PDE-IV inhibitors with or without MRA preincubation
Conditions: for Potentiation of relaxant activity by preincubation with C No. 66: C No. 66 at 1 nM before contraction with carbachol
Experimental: Guinea Pigs (400-600 gm) were procured and trachea was removed under anesthesia (sodium pentobarbital, 300 mg/kg i.p) and immediately kept in ice-cold Krebs Henseleit buffer. Indomethacin (10 uM) was present throughout the KH buffer to prevent the formation of bronchoactive prostanoids.
The tissue of adherent fascia was removed and cut into strips of equal size (with approx. 4-5 tracheal rings in each strip). The epithelium was removed by careful rubbing, minimizing damage to the smooth muscle. […] Opposite ends of the cut rings were tied with the help of a thread. The tissue was mounted in isolated tissue baths containing 10 ml Krebs Henseleit buffer maintained at 37° C. and bubbled with carbogen, at a basal tension of 1 gm. The buffer was changed 4-5 times for about an hour. Equilibration of the tissue was done for 1 hr for stabilization. After 1 hr, the tissue was challenged with 1 μM carbachol. This was repeated after every 2-3 washes till two similar consecutive responses were obtained. At the end of stabilization, the tissues were incubated with suboptimal dose of MRA/Vehicle for 20 minutes prior to contraction of the tissues with 1 μM carbachol. The relaxant activity of the PDE-IV inhibitor [10^−9M to 10^−4 M] on the stabilized developed tension/response was subsequently assessed. The contractile response of tissues was recorded either on Powerlab data acquisition system or on Grass polygraph (Model 7). The relaxation was expressed as percentage of maximum carbachol response and EC25 was calculated as the concentration producing 25% of the maximum relaxation to 1 μM carbachol. The percent relaxation between the treated and control tissues were compared using non-parametric unpaired t-test. A p value of <0.05 is considered to be statistically significant.

[1] = PDE-IV inhibitor alone, concentration producing 25% of the maximum relaxation to 1 μM carbachol
[2] = relaxation by the PDE-IV inhibitor in the presence of C No. 66 (1 nM preincubation), 1 μM carbachol

Row | SMILES | Potentiation of relaxant activity by preincubation with C No. 66 | - Log[EC25] [1] | EC25 [1] [µM] | - Log[EC25] [2]
1 | O=C(Nc1c(Cl)cncc1Cl)c1ccc(OC(F)F)c(OCC2CC2)c1 [Roflumilast] | potentiated | 4.46 | 44.2 | 6.25
2 | COc1ccc(C2CNC(=O)C2)cc1OC1CCCC1 (centres unmarked) [Rolipram] | no significant potentiation | 5.25 | 7.6 | –
3 | COc1ccc(C2=NO[C@]3(CCOC3)C2)cc1OC1CCCC1 [Compound No. 124aa, (S)-3-[3-(cyclopentyloxy)-4-methoxyphenyl]-1,7-dioxa-2-azaspiro[4.4]non-2-ene] | potentiated | 4.40 | 41.8 | 5.53
